# Experimental data as given in patent US9630943B2, “Tetrahydronaphthyl(thio) carboxamides” (BAYER CROPSCIENCE AG, priority 2012, dated 2017).
# System: Botrytis cinerea
# Assay: In vivo preventive test on Botrytis cinerea (grey mould)
# Settings: gherkin plants, preventive spray, dose 100 ppm, grading 4 to 5 days after contamination
# Description: Gherkin plants (“Vert petit de Paris” variety), sown in starter cups on a 50/50 peat soil-pozzolana substrate and grown at 24° C., are treated at the Z11 cotyledon stage by spraying with the active ingredient prepared as described above. Plants, used as controls, are treated with the mixture of acetone/tween/DMSO/water not containing the active material. After 24 hours, the plants are contaminated by spraying the cotyledons with an aqueous suspension of cryopreserved Botrytis cinerea spores (50 000 spores per ml). The spores are suspended in a nutrient solution composed of 10 g/L of PDB, 50 g/L of D-Fructose, 2 g/L of NH4NO3 and 1 g/L of KH2PO4. […] Grading (% of efficacy) is carried out 4 to 5 days after the contamination, in comparison with the control plants.
row,Compound,biological efficacy [%]
1,CCCC1CCc2c(NC(=O)c3cn(C)nc3C(F)F)cccc2C1C (mixture of isomers) [Example 95],≥ 80

# System: not listed separately
# Assay: Measurement of logP values by HPLC on reversed phase columns (EEC directive 79/831 Annex V.A8)
# Assay type: physicochemical
# Settings: method [a]
row,Compound,LogP^[a]
1,Cc1nn(C)c(F)c1C(=O)Nc1cccc2c1CC(C)(C)CC2 [Example 26],3.31^[a]
2,CCON=C1CCCc2c(NC(=O)c3nccnc3I)cccc21 [Example 70],3.44^[a]
3,CON=C1CCCc2c(NC(=O)c3sc(C)nc3C(F)F)cccc21 [Example 48],2.92^[a]
4,CON=C1CCCc2c(NC(=O)c3nccnc3I)cccc21 [Example 54],2.94^[a]
5,Cn1cc(C(=O)Nc2cccc3c2CCCC3)c(C(F)F)n1 [Example 27],2.68^[a]
6,Cc1nn(C)c(C)c1C(=O)Nc1cccc2c1CCC(C)(C)C2=O [Example 31],2.04^[a]
7,Cn1nc(C(F)(F)F)c(C(=O)Nc2cccc3c2CCC(C)(C)C3)c1F [Example 86],3.99^[a]
8,CC1(C)CCCc2c(NC(=O)c3ccsc3I)ccc(F)c21 [Example 63],4.29^[a]
9,CCON=C1CCCc2c(NC(=O)c3cn(C)nc3C(F)F)cccc21 [Example 42],2.96^[a]
10,Cc1nn(C)c(F)c1C(=O)Nc1cccc2c1CCC(C)(C)C2=O [Example 30],2.28^[a]
11,Cc1nn(C)c(C)c1C(=O)Nc1cccc2c1CCC(C)(C)C2C (racemic) [Example 20],3.25^[a]
12,CCON=C1CCCc2c(NC(=S)c3nccnc3C(F)(F)F)cccc21 [Example 91],3.83^[a]
13,CCON=C1CCCc2c(NC(=O)c3nccnc3C(F)(F)F)cccc21 [Example 72],3.55^[a]
14,Cc1nc(C(F)F)c(C(=O)Nc2ccc(F)c3c2CCCC3(C)C)s1 [Example 58],3.79^[a]
15,CCON=C1CCCc2c(NC(=O)c3ccoc3C(F)F)cccc21 [Example 79],3.68^[a]
16,C=C1c2cccc(NC(=O)c3sc(C)nc3C(F)F)c2CCC1(C)C [Example 7],3.87^[a]
17,CON=C1CCCc2c(NC(=O)c3c(C)nn(C)c3C)cccc21 [Example 37],2.17^[a]
18,CC1(C)CCc2c(cccc2NC(=O)c2ccsc2Br)C1 [Example 66],4.41^[a]
19,Cc1nn(C)c(C)c1C(=O)Nc1ccc(F)c2c1CCCC2(C)C [Example 90],2.98^[a]
20,CCON=C1CCCc2c(NC(=S)c3ccoc3C(F)F)cccc21 [Example 89],4.11^[a]

row,Compound,LogP^[a]
1,Cc1nn(C)c(F)c1C(=O)Nc1cccc2c1CCCC2(C)C [Example 61],3.35^[a]
2,CCc1nc(C)sc1C(=O)Nc1cccc2c1CCC(C)(C)C2 [Example 82],3.87^[a]
3,C=C1c2cccc(NC(=O)c3c(C)nn(C)c3F)c2CCC1(C)C [Example 9],3.48^[a]
4,CCc1nc(C)sc1C(=O)Nc1cccc2c1CCC(C)(C)C2C (racemic) [Example 19],4.19^[a]
5,Cn1cc(C(=O)Nc2cccc3c2C(C)(C)CCC3)c(C(F)F)n1 [Example 92],2.99^[a]
6,CC1(C)CCCc2c(NC(=O)c3nccnc3I)ccc(F)c21 [Example 50],3.92^[a]
7,CC1(C)CCCc2c(NC(=O)C3=C(C(F)(F)F)OCCS3)ccc(F)c21 [Example 57],4.01^[a]
8,CC1(C)CCc2c(cccc2NC(=O)c2nccnc2I)C1 [Example 67],4.01^[a]
9,Cc1nn(C)c(F)c1C(=O)Nc1cccc2c1CCC(C)C2C (mixture of isomers) [Example 13],3.41^[a]
10,Cc1nc(C(F)F)c(C(=O)Nc2cccc3c2CCC(C)(C)C3=O)s1 [Example 33],2.73^[a]
11,CON=C1CCCc2c(NC(=O)c3c(C(F)(F)F)nn(C)c3F)cccc21 [Example 75],3.11^[a]
12,Cn1cc(C(=S)Nc2ccc(F)c3c2CCCC3(C)C)c(C(F)F)n1 [Example 85],3.87^[a]
13,CC1c2c(cccc2NC(=O)c2cn(C)nc2C(F)F)CCC1(C)C (stereo not shown) [Example 34],3.51^[a]
14,CCON=C1CCCc2c(NC(=O)c3c(C)oc(C)c3C)cccc21 [Example 78],4.01^[a]
15,CCc1nc(C)sc1C(=O)Nc1cccc2c1CC(C)(C)CC2 [Example 24],3.79^[a]
16,CCON=C1CCCc2c(NC(=O)c3sc(C)nc3CC)cccc21 [Example 81],3.37^[a]
17,CC1(C)CCCc2c(NC(=O)c3nccnc3C(F)(F)F)ccc(F)c21 [Example 52],3.96^[a]
18,CON=C1CCCc2c(NC(=S)c3nccnc3C(F)(F)F)cccc21 [Example 88],3.39^[a]
19,Cc1nc(C(F)F)c(C(=O)Nc2cccc3c2CCC(C)(C)C3C)s1 (racemic) [Example 18],4.09^[a]
20,CC1(C)CCc2c(cccc2NC(=O)c2ccsc2I)C1 [Example 87],4.34^[a]

row,Compound,LogP^[a]
1,C=C1c2cccc(NC(=O)c3c(C)nn(C)c3C)c2CCC1(C)C [Example 6],3.05^[a]
2,Cn1cc(C(=O)Nc2cccc3c2CCC(C)(C)C3=O)c(C(F)F)n1 [Example 29],2.40^[a]
3,CC1CCc2cccc(NC(=O)c3cn(C)nc3C(F)F)c2C1(C)O (racemic) [Example 14],3.96^[a]
4,CCC1(CC)CCCc2c(NC(=O)c3cn(C)nc3C(F)F)cccc21 [Example 93],4.03^[a]
5,CCON=C1CCCc2c(NC(=O)c3c(C(F)(F)F)nn(C)c3F)cccc21 [Example 73],3.57^[a]
6,CON=C1CCCc2c(NC(=O)c3c(C)oc(C)c3C)cccc21 [Example 71],3.55^[a]
7,CCON=C1CCCc2c(NC(=O)c3c(C)nn(C)c3F)cccc21 [Example 40],2.86^[a]
8,Cc1oc(C)c(C(=O)Nc2ccc(F)c3c2CCCC3(C)C)c1C [Example 62],4.51^[a]
9,CCc1nc(C)sc1C(=O)Nc1cccc2c1CCC(C)(C)C2=O [Example 32],2.71^[a]
10,CC1(C)CCc2c(cccc2NC(=O)c2ccoc2C(F)F)C1 [Example 64],4.06^[a]
11,CCc1nc(C)sc1C(=O)Nc1cccc2c1CCCC2=NOC [Example 47],3.02^[a]
12,CON=C1CCCc2c(NC(=S)c3ccoc3C(F)F)cccc21 [Example 83],3.70^[a]
13,Cn1cc(C(=O)Nc2cccc3c2CCCC3(C)C)c(C(F)F)n1 [Example 60],3.39^[a]
14,CC1CCc2c(NC(=O)c3cn(C)nc3C(F)F)cccc2C1C (mixture of isomers) [Example 12],3.37^[a]
15,Cc1nn(C)c(C)c1C(=O)Nc1cccc2c1CCC(C)C2C (mixture of isomers) [Example 11],3.00^[a]
16,Cc1oc(C)c(C(=O)Nc2cccc3c2CCC(C)(C)C3)c1C [Example 65],4.59^[a]
17,Cc1nc(C(F)F)c(C(=O)Nc2cccc3c2CCC(C)C3C)s1 (mixture of isomers) [Example 35],3.78^[a]
18,Cc1nn(C)c(C)c1C(=O)Nc1cccc2c1CCC(C)(C)C2 [Example 45],2.94^[a]
19,CON=C1CCCc2c(NC(=O)c3cn(C)nc3C(F)F)cccc21 [Example 38],2.56^[a]
20,Cc1nc(C(F)F)c(C(=O)Nc2cccc3c2CCC(C)(C)C3)s1 [Example 46],3.81^[a]

# Same assay, conditions: method [a], HPLC on reversed phase columns
row,Compound,LogP[a]
1,CC(C)C1CCCc2c(NC(=O)c3cn(C)nc3C(F)(F)F)cccc21 (stereo not shown) [Example 99],3.96^[a]
2,CCCC1CCc2c(NC(=O)c3cn(C)nc3C(F)F)cccc2C1C (mixture of isomers) [Example 95],4.18^[a]
3,CC1(C)CCc2c(cccc2NC(=S)c2ccoc2C(F)F)C1 [Example 96],4.39^[a]

# Same assay, conditions: pH 2.7
row,Compound,chromatographic logP
1,"C=C1c2c(cccc2NC(=O)c2cn(C)nc2C(F)F)CCC1(C)C [Example 16, 3-(difluoromethyl)-N-(7,7-dimethyl-8-methylene-5,6,7,8-tetrahydronaphthalen-1-yl)-1-methyl-1H-pyrazole-4-carboxamide]",2.31

# Same assay, conditions: reversed phase HPLC columns; method [a]: LC-MS at pH 2.7, 0,1% formic acid in water / acetonitrile, gradient 10% to 95% acetonitrile; amines of formula (III-a); read-out: LogP^[a]
row,Compound,chromatographic logP
1,"CC1(C)CCc2c(N)cccc2C1 [III-a-3, 6,6-dimethyl-5,6,7,8-tetrahydronaphthalen-1-amine]",1.88

# System: Alternaria brassicae
# Assay: In vivo preventive test on Alternaria brassicae (leaf spot on radish)
# Settings: radish plants, preventive spray, dose 100 ppm, grading 6 days after contamination
# Description: Radish plants (“Pernod Clair” variety), sown in starter cups on a 50/50 peat soil-pozzolana substrate and grown at 17° C., are treated at the cotyledon stage by spraying with the active ingredient prepared as described above. Plants, used as controls, are treated with the mixture of acetone/tween/DMSO/water not containing the active material. After 24 hours, the plants are contaminated by spraying the cotyledons with an aqueous suspension of Alternaria brassicae spores (50 000 spores per ml). The spores are collected from a 15-day-old culture. The contaminated radish plants are incubated at 20° C. and at 100% relative humidity. Grading (% of efficacy) is carried out 6 days after the contamination, in comparison with the control plants.
row,Compound,biological efficacy [%]
1,CC1(C)CCc2c(cccc2NC(=S)c2ccoc2C(F)F)C1 [Example 96],≥ 70
